Laboratory results taken from patent publication US20090088574A1, “CRYSTAL OF 1,2-DIHYDROPYRIDINE COMPOUND (TYPE IV)” (EISAI R&D MANAGEMENT CO., LTD., priority 2005, published 2009).

How the values were obtained:
[1] = Physical stability in mixing operation in the presence of water or water-ethanol (1:1) mixed solution (powder X-ray diffraction before/after); type: physicochemical; settings: mixing in agate mortar at room temperature for a few minutes with dropwise water or water-ethanol (1:1) mixed solution, dried at about 60° C. for 2 to 3 hours
Protocol: Physical Stability in Mixing Operation in the Presence of Water or Water-Ethanol (1:1) Mixed Solution
About 60 to 150 mg of crystals obtained in Reference Example A1 (Anhydrous form II) and crystals obtained in Example 1 (Crystal form IV) were placed in an agate mortar, and the mixing operation was carried out at room temperature for a few minutes while the dropwise addition of water (or water-ethanol (1:1) mixed solution) continues. Subsequently, the crystals were dried at about 60° C. for 2 to 3 hours. The powder X-ray diffraction of the crystals obtained and crystals of before mixing operation were each measured under the following measurement conditions.
D8 DISCOVER with GADDS manufactured by Bruker AXS Ltd.
Tube voltage: 40 kV Tube current: 200 mA Scanning range (2θ): 5 to 40° Collimator: 0.3 mm double slit
The powder X-ray diffraction pattern of Anhydrous form II before and after mixing operation is shown in FIG. 3, and the powder X-ray diffraction pattern of Crystal form IV is shown in FIG. 4. The mixing operation of Anhydrous form II in the presence of water was performed twice.

[2] = Chargeability (static potential of the powder after stirring); type: physicochemical; settings: about 1 g stirred for 30 minutes in weighing bottle with fluoroplastic-coated stirring bar
Protocol: About 1 g of respective compounds is weighed into a weighing bottle (diameter of 35 mm). A stirring bar [fluoroplastic (tetrafluoroethylene resin) coating; 20 mm] is placed in the bottle and after the lid is in place, the powders are stirred for 30 minutes. The lid is opened at the same time that stirring is stopped; and the static potential of the powder is measured using a static potential measuring instrument.
STATIRON-DZ3 manufactured by Shishido Electrostatic, Ltd.

AMPA receptor = settings: see Patent Document 1 (WO/JP01/96308); cited from earlier work

SMILES | change of crystal form in mixing operation (physical stability) [1] | static potential of the powder (chargeability) [2] | antagonistic action against AMPA receptor (AMPA receptor)
N#Cc1ccccc1-c1cc(-c2ccccn2)cn(-c2ccccc2)c1=O [Example 1, 3-(2-Cyanophenyl)-5-(2-pyridyl)-1-phenyl-1,2-dihydopyridin-2-one] | do not change their crystal forms |  | 
N#Cc1ccccc1-c1cc(-c2ccccn2)cn(-c2ccccc2)c1=O [Reference Example A1, 3-(2-cyanophenyl)-5-(2-pyridyl)-1-phenyl-1,2-dihydropyridin-2-one] | change their crystal forms | 70-100 V | 
N#Cc1ccccc1-c1cc(-c2ccccn2)cn(-c2ccccc2)c1=O [compound (1), 3-(2-cyanophenyl)-5-(2-pyridyl)-1-phenyl-1,2-dihydropyridin-2-one] |  |  | significant antagonistic action
